Counter-ions that a name gives are not always drawn. Like-named read-outs stand apart in the source and are kept apart here.

As a reminder, the IC50 is the concentration that gives 50% inhibition.

Assay [1] has as its system airway hyperresponsiveness. Particulars: multiple antigen challenges, primate model; cited from earlier work.
Assay [2] has as its system ionophore-induced LTB4 production. Particulars: oral administration; cited from earlier work.
For assay [3] the test system is unchanged. Particulars: oral administration; cited from earlier work. This is another data set of the same source.
The next assay deals with colitis symptoms. To be noted: eight weeks of treatment; cited from earlier work.
Assay [4] addresses T1, recombinant human LTA4 hydrolase (rhLTA4H) (Homo sapiens, UniProt P09960).
T1 construct: made in house; host or cells: Spodoptera frugiperda (Sf-9) cells, baculovirus (pFastBac1)
T1 sequence (P09960 1-611): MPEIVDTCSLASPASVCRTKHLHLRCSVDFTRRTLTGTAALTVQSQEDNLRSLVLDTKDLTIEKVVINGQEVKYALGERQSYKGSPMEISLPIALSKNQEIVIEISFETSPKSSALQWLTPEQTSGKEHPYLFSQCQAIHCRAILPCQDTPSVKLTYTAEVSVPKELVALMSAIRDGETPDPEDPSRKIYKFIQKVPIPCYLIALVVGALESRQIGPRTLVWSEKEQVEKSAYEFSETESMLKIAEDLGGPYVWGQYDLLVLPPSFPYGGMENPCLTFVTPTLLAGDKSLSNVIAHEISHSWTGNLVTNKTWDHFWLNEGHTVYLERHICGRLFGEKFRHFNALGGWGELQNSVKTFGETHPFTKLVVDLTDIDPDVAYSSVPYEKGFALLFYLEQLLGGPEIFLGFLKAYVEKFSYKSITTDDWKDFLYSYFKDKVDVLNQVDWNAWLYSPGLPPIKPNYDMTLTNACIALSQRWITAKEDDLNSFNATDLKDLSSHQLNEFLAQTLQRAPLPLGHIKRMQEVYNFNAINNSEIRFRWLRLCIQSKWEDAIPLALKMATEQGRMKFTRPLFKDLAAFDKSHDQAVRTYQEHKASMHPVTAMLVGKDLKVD
In words: Recombinant human LTA4 hydrolase assay for LTA4 hydrolase inhibitor activity. The assay is classed as biochemical. To be noted: rhLTA4H, LTB4 by immunoassay; single determination or average of two or more; mark after value = form tested: ′ free base, ″ hydrochloride, ^ formate; read-out: IC50. The procedure, abridged:
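LTB4 formation, measured by enzyme immunoassay, was the read-out. The enzyme, recombinant human LTA4H expressed in Sf-9 insect cells (10 ng per reaction), was exposed to compound for 10 min at room temperature before hydrolysed-ester LTA4 substrate was added for 30 min. Enzyme-free negatives were included.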

In assay [5] the test system is LTB4 production in murine blood (LTA4H). In words: LTB4 production by calcium ionophore-stimulated murine blood for LTA4H inhibitor activity. Format: cell-based, CD-1 mice. Particulars: Mus musculus; murine blood diluted 1 in 15, A23187 stimulated; single determination or average; mark after value = form tested: ′ free base, ″ hydrochloride, ^ formate; read-out: IC50. The method in brief:
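LTB4 was measured by ELISA in supernatants after calcium ionophore A23187 stimulation (final 7 μg/mL, 30 min, 37° C) of CD-1 mouse blood collected on heparin. Compound was preincubated with the blood for 15 min beforehand. Values come from one determination or average several.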

Assay [6] concerns arachidonic acid-induced neutrophil influx in murine ear tissue. Put plainly: Murine arachidonic acid-induced inflammation model: neutrophil influx (myeloperoxidase) in ear. Format: in vivo, Balb/c mice. To be noted: Mus musculus, read-out: % Inh. MPO.
Assay [7] deals with ex vivo calcium ionophore-stimulated LTB4 production in whole blood. Put plainly: Murine arachidonic acid-induced inflammation model: ex vivo stimulated LTB4 production in blood. More on the design: species or system Balb/c mice. Particulars: Mus musculus; 30 mg/kg oral gavage; blood diluted 1:1, A23187 stimulated ex vivo; percent inhibition of LTB4 production; read-out: % Inh. LTB4.

The mark [8] stands for this setting: 30 mg/kg oral gavage, 60 min before topical arachidonic acid, ear biopsy after 3 h, percent inhibition of neutrophil influx.

Take `O=C(O)C1(c2ccc3c(c2)OC[C@H](Cc2ccc(-c4ccccc4)cc2)[C@H]3O)CCCC1` [CP-105,696]: the airway hyperresponsiveness result in assay [1] is reported as “reduced”.

For `CN(CCCOc1ccc(Cc2ccccc2)cc1)CCC(=O)O.Cl` [SC57461], the “ionophore-induced LTB4 production in mouse blood ex vivo” value in assay [2] was “caused inhibition”. Further, in assay [3], the “ionophore-induced LTB4 production in rat peritoneum in vivo” value is reported as “caused inhibition”. Besides, the colitis symptoms entry in the assay with colitis symptoms is recorded as “significantly improved”.

In the case of `NC(=O)N1CCN(Cc2coc3cc(Oc4nc5ncccc5s4)ccc23)CC1` [Example 239, 4-[6-(Thiazolo[4,5-b]pyridin-2-yloxy)-benzofuran-3-ylmethyl]-piperazine-1-carboxylic acid amide], the IC50 in assay [4] turned out to be 6 nM; in assay [5], 18 nM. For the same compound, the inhibition at 30 mg/kg was determined as 90% in assay [6] (setting [8]) and 71% in assay [7].

As for `CC(C)(C)C(=O)NC1CCN(Cc2cc3ccc(Oc4nc5ncccc5s4)cc3o2)C1` (stereo not shown) [Example 236, 2,2-Dimethyl-N-{1-[6-(thiazolo[4,5-b]pyridin-2-yloxy)-benzofuran-2-ylmethyl]-pyrrolidin-3-yl}-propionamide formate], the values for the IC50 in assay [4] and in assay [5] were 60 nM and 190 nM, respectively. For the same compound, the inhibition at 30 mg/kg came to 34% in assay [6] (Neutrophil) and 39% in assay [7].

As for `CS(=O)(=O)C1CCN(Cc2coc3cc(Oc4nc5ncccc5s4)ccc23)CC1` [Example 183, 2-[3-(4-Methanesulfonyl-piperidin-1-ylmethyl)-benzofuran-6-yloxy]-thiazolo[4,5-b]pyridine], the IC50 was determined as 6 nM in assay [4] and 57 nM in assay [5]. The inhibition at 30 mg/kg in assay [6] (setting [8]) came out at 85%; in assay [7] it was 83%.
